The text below walks through data of publication PMC12348882, “Rational Design, Synthesis and In Vitro Activity of Diastereomeric Cis-/Trans-3-Substituted-3,4-Dihydroisocoumarin-4-Carboxylic Acids as Potential Carnitine Acetyltransferase Inhibitors” (Molecules, 2025).

Assay [1] has as its target T1, carnitine acetyltransferase (CAT) (Columba livia, UniProt P52826).
T1 construct: an enzyme isolated from pigeon breast muscle (Sigma Aldrich) was used in the form of an ammonium sulfate suspension; tissue Sigma-Aldrich; host or cells: pigeon breast muscle
T1 sequence (P52826 31-627): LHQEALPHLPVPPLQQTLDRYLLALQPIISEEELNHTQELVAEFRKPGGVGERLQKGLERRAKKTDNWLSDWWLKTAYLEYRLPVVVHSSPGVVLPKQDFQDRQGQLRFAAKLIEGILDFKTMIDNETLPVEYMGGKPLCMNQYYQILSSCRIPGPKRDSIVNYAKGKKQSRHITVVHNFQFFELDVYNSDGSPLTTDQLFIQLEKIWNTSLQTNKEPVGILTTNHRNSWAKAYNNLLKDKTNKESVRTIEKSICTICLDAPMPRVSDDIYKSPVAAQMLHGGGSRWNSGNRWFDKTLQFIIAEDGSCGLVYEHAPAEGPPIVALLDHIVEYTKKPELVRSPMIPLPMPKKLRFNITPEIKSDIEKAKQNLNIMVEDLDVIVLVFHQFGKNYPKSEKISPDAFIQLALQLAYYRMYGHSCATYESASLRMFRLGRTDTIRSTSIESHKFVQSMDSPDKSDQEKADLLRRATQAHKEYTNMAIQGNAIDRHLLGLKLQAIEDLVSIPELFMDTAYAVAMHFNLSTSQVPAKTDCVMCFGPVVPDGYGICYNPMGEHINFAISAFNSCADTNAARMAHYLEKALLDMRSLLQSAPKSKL
As to the kind of experiment: Initial screening of CAT inhibition, spectrophotometric kinetic method with Ellman's reagent. The assay is classed as biochemical. The following applies: read in first minute of reaction; for inhibition at 100 µM: read-out: CAT inhibition (%), inhibitor 100 μM; for inhibition at 250 µM: read-out: CAT inhibition (%), inhibitor 250 μM; for inhibition at 1000 µM: read-out: CAT inhibition (%), inhibitor 1000 μM. As to the method:
To assess the inhibitory potential of the synthesized compounds against CAT, we conducted an initial screening at three concentrations: 100 μM, 250 μM and 1000 μM. Readings were taken within the first minute after the reaction started, and inhibition was measured using a kinetic method, as described in the Experimental section. The results are summarized and presented as a percentage of inhibition in Figure 2 and Figure 3 for the 3-alkyl-3,4-dihydroisocoumarin-4-carboxylic acids and the 3-alkyl/3-aryl-6,7-dimethoxy-3,4-dihydroisocoumarin-4-carboxylic acids, respectively.
To determine the effect of the synthesized compounds on CAT activity, a modified procedure for spectrophotometric determination of L-carnitine using Ellman’s reagent was used. In all analyses, an enzyme isolated from pigeon breast muscle (Sigma Aldrich) was used in the form of an ammonium sulfate suspension with an activity of 71 U/mg protein. One unit of enzyme catalyzes the conversion of 1 μmol of L-carnitine and acetyl-CoA into acetylcarnitine and free CoA in 1 min. Phosphate buffer (0.5 M, pH = 7.6) is used to dilute the enzyme to obtain a stock solution with a concentration of 24 U/mL.
Ellman’s reagent was prepared immediately before each measurement by dissolving 25 mg DTNB in 5 mL 1 mM solution of Na2EDTA in phosphate buffer (0.5 M, pH = 7.6). Stock solutions of acetyl-CoA and L-carnitine were prepared in deionized water with concentrations of 348.0 μM and 303.4, respectively. An aqueous solution of tris (hydroxymethyl) aminomethane (TRIS) with pH = 7.6 and 1 M concentration was used as a buffer solution. Test compounds were dissolved and diluted in phosphate buffer (0.5 M, pH = 7.6) to the desired stock concentration. The working volume of the reaction is 300 μL and contains 50 μL of each of the six components (DTNB, TRIS, acetyl-CoA, CAT, L-carnitine and inhibitor) solutions with concentrations as described below. In the control samples, the inhibitor solution is replaced with phosphate buffer (0.5 M, pH = 7.6). The incubation time for all components without L-carnitine is 5 min at 37 °C. The reaction was started by adding L-carnitine, and its progress was monitored by reading the change in absorbance at 405 nm in kinetic mode. The concentrations of the components in the final volume were, c (DTNB) = 114 μM, c (TRIS) = 100 mM, c (acetyl-CoA) = 58 μM, c (CAT) = 4 U/mL and c (L-carnitine) = 50.56 μM. The time for reading the results was the first minute after starting the reaction.

The target of assay [2] is T1, carnitine acetyltransferase (CAT). The experiment in a line: Kinetic studies of CAT inhibition mechanism (Michaelis-Menten / Lineweaver-Burk, SigmaPlot regression). The format is biochemical, pigeon. The following applies: for Type / mechanism of inhibition: model chosen by R^2, AIC and Sy,x. From the text: These experiments allowed us to identify the inhibition mechanism and calculate Km, Vmax and Ki. We used SigmaPlot version 12.5 (Systat Software Inc., San Jose, CA, USA), which includes modules for regression analysis and various inhibition models. This software also lets us choose the mechanism of inhibition with the highest correlation factors (coefficient of determination (R^2) and Akaike information coefficient (AIC)) and the lowest Sy,x value. The numerical results are summarized in Table 1, while the corresponding Lineweaver–Burk and Michaelis–Menten kinetic plots are available in the Supplementary Materials.
(Michaelis-Menten) and 1/v0 vs. […] (Lainweaver-Burke) relationships. For this purpose, five solutions with different concentrations of the inhibitor and five solutions with different concentrations of L-carnitine were prepared. […] The time for reading the results is every six seconds for three minutes after the start of the reaction, which corresponds to the end of the linear interval. The initial velocity v0 was determined using the method proposed by Baici, by calculating the cut-off of the v vs. t (time) dependence for the linear interval of each of the reactions. Graphical dependencies are provided in the Supplementary Materials (Figures S1–S3).
Figure S2. Graphs representing the dependence of the initial velocity (v 0) on the concentration of the substrate [S], according to the model of Michaelis -Menten – left, and Lineweaver-Burk – right, for reversible a) mixed, b) non-competitive, c) uncompetitive and d) competitive inhibition. The concentration of the inhibitor - compound cis-8 are 0 μM, 25.6 μM, 51.2 μM and 68.3 μM, concentration of L-carnitine are 94 μM, 180 μM, 370 μM, 750 μM and 1500 μM.
Figure S3. Graphs representing the dependence of the initial velocity (v 0) on the concentration of […]
for reversible a) mixed, b) uncompetitive, c) non-competitive and d) competitive inhibition. The concentration of the inhibitor - compound trans-8 are 0 μM, 26.0 μM, 52.0 and 69.4 μM,

Where [3] appears, read: fit to competitive inhibition model.
The mark [4] stands for this setting: fit to non-competitive inhibition model.
The mark [5] stands for this setting: fit to uncompetitive inhibition model.

In the case of `CCCC1OC(=O)c2ccccc2C1C(=O)O` (mixture of isomers) [M2-1, Cis- and Trans-(±)-3-Propyl-3,4-Dihydro-1-Oxo-1H-Isochromene-4-Carboxylic Acids], the “CAT inhibition (%)” value in assay [1] (inhibitor 100 μM) is listed as 1%; in assay [1] (inhibitor 250 μM), 3%; in assay [1] (inhibitor 1000 μM) it was 7%.
For `COc1cc2c(cc1OC)C(C(=O)O)C(c1cccc(OC)c1OC)OC2=O` (racemic) [cis-10, Cis- and Trans-(±)-3,4-Dihydro-3-(2,3-Dimethoxyphenyl)-6,7-Dimethoxy-1-Oxo-1H-Isochromene-4-Carboxylic Acids], in assay [1], the inhibition at 100 µM is 1%, the inhibition at 250 µM turned out to be 2% and the inhibition at 1000 µM was 12%.
For `CCCCCCCCCC1OC(=O)c2ccccc2C1C(=O)O` (racemic) [cis-3, Cis- and Trans-(±)-3,4-Dihydro-3-Nonyl-1-Oxo-1H-Isochromene-4-Carboxylic Acids], in that order: 9%, 28% and 97%.
With `CCCCCCCCCCC1OC(=O)c2ccccc2C1C(=O)O` (racemic) [trans-4, Cis- and Trans-(±)-3-Decyl-3,4-Dihydro-1-Oxo-1H-Isochromene-4-Carboxylic Acids], the “CAT inhibition (%)” value in assay [1] (inhibitor 100 μM, 100 µM) worked out at 54%; in assay [1] (inhibitor 250 μM, 250 µM) it was 79%; in assay [1] (inhibitor 1000 μM), 97%.
As for `CCCCCCCCCC1OC(=O)c2cc(OC)c(OC)cc2C1C(=O)O` (racemic) [cis-7, Cis- and Trans-(±)-3,4-Dihydro-6,7-Dimethoxy-3-Nonyl-1-Oxo-1H-Isochromene-4-Carboxylic Acids], in assay [1], the inhibition at 100 µM was found to be 8%, the inhibition at 250 µM came out at 43% and the inhibition at 1000 µM is 85%.
Regarding `COc1cc2c(cc1OC)C(C(=O)O)C(c1ccccc1)OC2=O` (racemic) [trans-9, Cis- and Trans-(±)-3,4-Dihydro-6,7-Dimethoxy-1-Oxo-3-Phenyl-1H-Isochromene-4-Carboxylic Acids], the inhibition at 100 µM in assay [1] was found to be 1%.
In the case of `CCCCCCCC1OC(=O)c2ccccc2C1C(=O)O` (racemic) [trans-2, Cis- and Trans-(±)-3-Heptyl-3,4-Dihydro-1-Oxo-1H-Isochromene-4-Carboxylic Acids], the “CAT inhibition (%)” value in assay [1] (inhibitor 100 μM, 100 µM) is 4%; in assay [1] (inhibitor 250 μM, 250 µM) it was 6%; in assay [1] (inhibitor 1000 μM, 1000 µM), 25%.
Consider `CCCCCCCCCCC1OC(=O)c2cc(OC)c(OC)cc2C1C(=O)O` (racemic) [trans-8, Cis- and Trans-(±)-3-Decyl-3,4-Dihydro-6,7-Dimethoxy-1-Oxo-1H-Isochromene-4-Carboxylic Acids], for which the AIC is −1490.723 in assay [2] (setting [3]), −1548.364 in assay [2] (fit to mixed inhibition model), −1542.332 in assay [2] (setting [4]) and −1548.795 in assay [2] (setting [5]). Moreover, the “Sy,x” value in assay [2] (setting [3]) was 7.493 × 10^−9; in assay [2] (fit to mixed inhibition model), 3.576 × 10^−9; in assay [2] (setting [4]), 3.931 × 10^−9; in assay [2] (setting [5]), 3.626 × 10^−9. Also, the α was 0.21 in assay [2] (mixed inhibition model) and 1 in assay [2] (non-competitive inhibition model). The molecule also displayed a Ki in assay [2] (mixed-type inhibition model, L-carnitine varied) of 377 µM. Also, the figures for the “Type / mechanism of inhibition” value in assay [2] and in assay [2] (listed as trans-3-decyl-6,7-dimethoxy-3,4-dihydroisocoumarin-4-carboxylic acid) were “mixed-type inhibitors” and “mixed inhibition”, respectively.
Regarding `CCCCCCCC1OC(=O)c2ccccc2C1C(=O)O` (racemic) [cis-2, Cis- and Trans-(±)-3-Heptyl-3,4-Dihydro-1-Oxo-1H-Isochromene-4-Carboxylic Acids], in assay [1], the inhibition at 100 µM is 3%, the inhibition at 250 µM came to 10% and the inhibition at 1000 µM was found to be 16%.
Take `CCCCCCCC1OC(=O)c2cc(OC)c(OC)cc2C1C(=O)O` (racemic) [cis-6, Cis- and Trans-(±)-3-Heptyl-3,4-Dihydro-6,7-Dimethoxy-1-Oxo-1H-Isochromene-4-Carboxylic Acids]: in assay [1], the inhibition at 1000 µM amounted to 27%.
In the case of `COc1ccc(OC)c(C2OC(=O)c3cc(OC)c(OC)cc3C2C(=O)O)c1` (stereo not drawn) [cis-11, Cis- and Trans-(±)-3,4-Dihydro-3-(2,5-Dimethoxyphenyl)-6,7-Dimethoxy-1-Oxo-1H-Isochromene-4-Carboxylic Acids], in assay [1], the inhibition at 100 µM was 1%, the inhibition at 250 µM turned out to be 6% and the inhibition at 1000 µM is 22%.
For `CCCCCCCCCC1OC(=O)c2ccccc2C1C(=O)O` (racemic) [trans-3, Cis- and Trans-(±)-3,4-Dihydro-3-Nonyl-1-Oxo-1H-Isochromene-4-Carboxylic Acids], the “CAT inhibition (%)” value amounted to 17% in assay [1] (inhibitor 100 μM, 100 µM); 40% in assay [1] (inhibitor 250 μM, 250 µM); 91% in assay [1] (inhibitor 1000 μM, 1000 µM).
As for `CCCCCCCCCCC1OC(=O)c2ccccc2C1C(=O)O` (racemic) [cis-4, Cis- and Trans-(±)-3-Decyl-3,4-Dihydro-1-Oxo-1H-Isochromene-4-Carboxylic Acids], the “CAT inhibition (%)” value in assay [1] (inhibitor 100 μM, 100 µM) is given as 31%. Further, in assay [1], the inhibition at 250 µM came out at 96% and the inhibition at 1000 µM was 97%.
